Assay results reported in patent EP0393575B1, “Neoplasia treatment compositions containing antineoplastic agent and side-effect reducing protective agent” (priority 1989, dated 1990).
Read-outs that look alike come from different tables or passages of the source.

Legend:
normal BDF₁ mice [1] = tested on: normal BDF₁ mice
Method: (§1) The effect of carbetimer on sub-acute adriamycin toxicity in normal BDF₁ mice was evaluated. Normal BDF₁ mice were treated either with adriamycin alone at 21 mg/kg i.v. or with adriamycin at 21 mg/kg i.v. plus carbetimer 125 mg/kg i.v. given concurrently. […] Data are reported in Table IV in absolute weights of animals and depicted in Figure 4 in terms of percent of original weights of the animals.

MIA C51 cell line = test: Trial VI: survival of rats inoculated with tumor cells; format: in vivo; conditions: Adriamycin 10 mg/kg i.v. Day One Only
Method: Rats were inoculated with a million cells of MIA C51 cell line. Thereafter, animals were treated with saline control, carbetimer alone at 1700 mg/kg in days 1-5, or adriamycin at 10 mg/kg i.v., or adriamycin 10 mg/kg i.v. plus carbetimer at 1700 mg/kg i.p. Animals treated with the combination of carbetimer and adriamycin remained alive 40 days after treatment. The combination therapy provided greater tumor remission than carbetimer alone or adriamycin alone, indicating two drugs may act in an additive or synergistic manner to cure tumors in tumor-bearing rats. Data are reported in Table VI and depicted in Figure 6.

normal BDF₁ mice [2] = tested on: normal BDF₁ mice; remark: listed apart in the source
Method: as §1, with “250” for “125”, “III” for “IV”, “3” for “4”

normal BDF₁ mice [3] = tested on: normal BDF₁ mice; remark: listed apart in the source
Method: The effect of carbetimer on sub-acute adriamycin toxicity in normal BDF₁ mice was evaluated. Normal BDF₁ mice were treated either with adriamycin alone at 21 mg/kg i.v. or with adriamycin at 21 mg/kg i.v. plus carbetimer 500 mg/kg i.v. given concurrently. […]

normal BDF₁ mice [4] = tested on: normal BDF₁ mice; remark: listed apart in the source
Method: The effect of carbetimer on acute adriamycin toxicity in normal BDF₁ mice was evaluated. Normal BDF₁ mice were treated with carbetimer alone at 1700 mg/kg i.p. with adriamycin alone at 21 mg/kg i.v. or the combination of the two drugs, carbetimer being given half an hour before adriamycin. […] Data are reported in Table I and depicted in Figure 1.

[5] = Adriamycin alone 21 mg/kg i.v., Day 6
[6] = lethal dose of adriamycin alone, 21 mg/kg i.v.

COc1cccc2c1C(=O)c1c(O)c3c(c(O)c1C2=O)C[C@@](O)(C(=O)CO)C[C@@H]3O[C@H]1C[C@H](N)[C@H](O)[C@H](C)O1 [Adriamycin, doxorubicin]
mortality (normal BDF₁ mice [1]; [5]): all dead
time to death from start of the therapy (normal BDF₁ mice [1]; [6]): ≤ 10 days
% Rats Alive After Treatment (MIA C51 cell line; Days 0-8): 100%
% Rats Alive After Treatment (MIA C51 cell line; Days 9-10): 100%
% Rats Alive After Treatment (MIA C51 cell line; Days 11-26): 100%
% Rats Alive After Treatment (MIA C51 cell line; Days 27-29): 80%
% Rats Alive After Treatment (MIA C51 cell line; Days 30-32): 0%
% Rats Alive After Treatment (MIA C51 cell line; Days 33-40): 0%
% Rats Alive After Treatment (MIA C51 cell line; Days 41-43): 0%
mortality (normal BDF₁ mice [2]; Adriamycin alone 21 mg/kb i.v., Day 6): all dead
time to death from start of the therapy (normal BDF₁ mice [2]; [6]): ≤ 8 days
mortality (normal BDF₁ mice [3]; [5]): all dead
time to death from start of the therapy (normal BDF₁ mice [3]; [6]): ≤ 8 days
mortality (normal BDF₁ mice [4]; Adriamycin 21 mg/kg i.v., 7 days post-treatment): all dead
time to death from start of the therapy (normal BDF₁ mice [4]; [6]): ≤ 8 days
